Assay results: patent publication US11780880B2, “High-activity memory-improving derivative peptide and use thereof” (Jilin Agricultural University, priority 2021, dated 2023)
Peptide text beside a SMILES is read from it.

How the values were obtained:
[1] = ABTS free radical scavenging assay; assay type: physicochemical; conditions: concentration of 100 μM
Experimental: (1) ABTS free radical scavenging assay: Equal volumes of a 7 mmol/L ABTS aqueous solution and a 2.49 mmol/L potassium persulfate aqueous solution were mixed and left to stand in the dark for 12 h to obtain an ABTS free radical stock solution, which was stored at 4° C. When in use, the stock solution was diluted with 5 mmol/L PBS until the absorbance of the solution was 0.700±0.002 at 734 nm, and an ABTS free radical working solution was prepared. Separately, 10 μL of each of the aqueous solutions of derivative peptides with a concentration of 100 μM was added to a 96-well plate, while glutathione (GSH) of the same concentration was used as a control; these solutions reacted with 190 μL of ABTS free radical working solution accurately for 6 min, and absorbance values (A1) were measured at a wavelength of 734 nm using a microplate reader. The calculation formula for scavenging rate is as follows: […]
where A0 is the absorbance value that replaces the derivative peptide solution with distilled water;
A1 is the absorbance value of the solution adding a derivative peptide or GSH; and
A2 is the absorbance value of the solution using 5 mmol/L PBS instead of the ABTS free radical working solution.

[2] = Oxygen radical antioxidant capacity (ORAC) assay; assay type: physicochemical; conditions: 100 μM aqueous solutions
Experimental: (2) ORAC assay: (1) On a 96-well black plate, 25 μL each of PBS, Trolox standard solutions (12.5, 25, 50, and 100 μM) and aqueous solutions of five derivative peptides (100 μM) was added. The 96-well plate was placed and shaken in a microplate reader preheated for 30 min for 5 s, and incubated at 37° C. for 10 min. To each well, 150 μL each of FL working solution was added using a multi-channel pipette, and the plate was shaken for 5 s and incubated at 37° C. for 20 min. To each well, 25 μL each of AAPH was quickly added using the multi-channel pipette, and the plate was shaken for 5 s, followed by reading. The fluorescence intensity was continuously measured at an excitation wavelength of (485±20) nm and an emission wavelength of (530±20) nm. The whole system was held at 37° C., and the fluorescence intensity was measured every 2 min. Before each measurement, the well plate was shaken at a medium speed for 10 s, and the oscillation amplitude was 4 mm. The measurement was performed until the fluorescence intensity reached 5% of the initial fluorescence intensity (60 cycles were set in this assay). The relative fluorescence intensity is calculated by the area under the fluorescence decay curve (AUC) as follows: AUC=0.5×[2×(f0+f1 . . . +fn-1+fn)−f0−fn]×Δt
(1) In the formula, fn is the relative fluorescence intensity at the n-th measurement point; and Δt is the interval between adjacent time points, namely 2 min.
(2) The measurement results are expressed as ORAC values. The ORAC values of unknown samples are expressed in μmol TE/g. ORAC value=[(AUCSample−AUCBlank)/(AUCTrolox−AUCBlank)]×CTrolox/CSample.
Herein, AUCSample is the result of each of the aqueous solutions of five derivative peptides; AUCBlank is the result after adding 25 μL of PBS; AUCTrolox is the result after adding Trolox standard solution (100 μM); CTrolox is the molar concentration of Trolox, namely, 100 μM;
CSample is the molar concentration of each derivative peptide, calculated from the Trolox standard curve, where the Trolox standard curve is y=0.0756x+41.989, R^2=0.9931, the abscissa is the molar concentration of Trolox (12.5, 25, 50, or 100 μM), and the ordinate is AUCTrolox.

[3] = Thermal stability testing (RP-HPLC peak area); assay type: physicochemical; conditions: 100 μM, pH 7.0, 20-100° C. water bath for 2 h
Experimental: Thermal Stability Testing (see FIG. 4A): • Step 1, the solid powder of derivative peptide WYSGK (SEQ ID NO:4) was dissolved in distilled water to prepare a 100 μM solution, the pH value was adjusted to 7.0, and the resulting solution was stored at 4° C. for later use; • Step 2, the derivative peptide WYSGK (SEQ ID NO: 4) solution in step 1 was divided into five tubes (1 mL/tube), and each tube was placed in a water bath at 20, 40, 60, 80, and 100° C. for 2 h; • Step 3, the blank group (the derivative peptide WYSGK (SEQ ID NO: 4) solution in step 1 without water bath treatment) and the derivative peptide WYSGK (SEQ ID NO:4) solution at each temperature were filtered through a 0.22 μm filter membrane; • Step 4, RP-HPLC was performed under the following conditions: detection wavelength: 220 nm; column temperature: 25° C.; mobile phase A: acetonitrile+0.1% (v/v) TFA; mobile phase B: acetonitrile+0.1% (v/v) TFA. Elution conditions were programmed as follows: 0-25 min, 10%-35% B (the value could be input in the liquid phase equipment); flow rate 1.0 mL/min; and • Step 5, the peak area in the liquid chromatogram was calculated to determine whether the derivative peptide WYSGK (SEQ ID NO:4) was degraded at different temperatures (refer to Liu Xintong's method, Sci. Technol. Food Ind., Vol. 41, No. 19, 2020).

[4] = Acid-base stability testing (RP-HPLC peak area); assay type: physicochemical; conditions: 100 μM, pH 2, 4, 6, and 8, 37° C. for 2 h
Experimental: Acid-base Stability Testing (see FIG. 4B): • Step 1, the solid powder of derivative peptide WYSGK (SEQ ID NO: 4) was dissolved in distilled water to prepare a 100 μM solution, which was used as a blank group and stored at 4° C. for later use; • Step 2, the solid powder of derivative peptide WYSGK (SEQ ID NO: 4) was diluted with aqueous solutions with pH 2, 4, 6, and 8 to a concentration of 100 μmol/L, respectively, and the resulting solutions were incubated in a water bath at 37° C. for 2 h; • Step 3, the blank group and WYSGK (SEQ ID NO: 4) sample solutions at different pH were filtered through a 0.22 μm filter membrane; • Step 4, RP-HPLC was performed under the following conditions: detection wavelength: 220 nm; column temperature: 25° C.; mobile phase A: 100% acetonitrile+0.1% TFA; mobile phase B: 100% acetonitrile+0.1% TFA. Elution conditions were programmed as follows: 0-25 min, 10%-35% B (gradient elution); flow rate 1.0 mL/min; and • Step 5, the peak area in the liquid chromatogram was calculated to determine whether the derivative peptide WYSGK (SEQ ID NO: 4) was degraded at different pH (refer to Liu Xintong's method, Sci. Technol. Food Ind., Vol. 41, No. 19, 2020).

[5] = Simulated gastrointestinal digestion stability testing; assay type: in vitro ADME; conditions: pepsin up to 2 h then trypsin up to 2 h, 37° C.
Excerpt: […]

[6] = tested on: scopolamine-induced memory impairment model mice; experiment: Morris water maze (place navigation and probe trial); assay type: in vivo, Male C57BL/6N mice
Experimental: In vivo studies were performed in accordance with the Guide for the Care and Use of Laboratory Animals published by the […]. Male C57BL/6N mice weighing 25-30 g were purchased from Liaoning Changsheng Biotechnology Co., Ltd. (Benxi, China). Mice were housed at a stable temperature (22±1° C.) under a 12 h/12 h light/dark cycle. The mice were given access to standard diet and water ad libitum. […]
A circular pool for Morris water maze (1,200 mm in diameter) was filled with warm water at 20±2° C., while a platform (65 mm diameter) was hidden in the Southwest (SW) quadrant 1 cm below the water surface. A mouse was gently placed in the Northeast (NE) quadrant facing the pool wall, the swimming trajectory of the mouse was recorded by the image acquisition system, and the time was measured for 120 s. The time it took to find the platform in the SW quadrant within 120 s was recorded as the latency, while the mouse that reached the platform was allowed to sit on the platform for 10 s and then returned to the holding cage. […] Subsequently, the time from the mice being placed in the water to finding the platform was analyzed and calculated according to the data acquisition system (see FIG. 2A). […]
After the place navigation was completed, the platform hidden in the water was taken out. A mouse was gently placed in the Northeast (NE) quadrant facing the pool wall, the swimming trajectory of the mouse was recorded by the image acquisition system, and the time was measured for 90 s. According to the data acquisition system, the time spent in the target quadrant (see FIG. 2B) and the frequency of original platform crossing (see FIG. 2C) within 90 s were analyzed and calculated on the mouse. […]

Compound | ABTS free radical scavenging rate [1] | ORAC value [2] | further results
N[C@@H](CCC(=O)N[C@@H](CS)C(=O)NCC(=O)O)C(=O)O [GSH, reduced glutathione, reference compound] | 31.39% | 995.58 μmol TE/g | –
NCCCC[C@H](NC(=O)CNC(=O)[C@H](CO)NC(=O)[C@H](Cc1ccc(O)cc1)NC(=O)[C@@H](N)Cc1c[nH]c2ccccc12)C(=O)O [WYSGK, Trp-Tyr-Ser-Gly-Lys] (H-WYSGK-OH; N-terminus and C-terminus assumed) | – | – | degradation at different temperatures (thermal stability) [3]: hardly degraded; degradation at different pH (acid-base stability) [4]: hardly degraded; retention rate of peptide content [5]: at least 93.45%
Trp-Tyr-Glu-Gly-Lys (WYEGK; derivative peptide) | 54.48% | 5,422.29 μmol TE/g | –
Trp-Tyr-Lys-Gly-Lys (WYKGK; derivative peptide) | 40.31% | 3,681.50 μmol TE/g | –
Trp-Tyr-Phe-Gly-Lys (WYFGK; derivative peptide) | 36.56% | 3,762.05 μmol TE/g | –
WYPGK: pine nut-derived antioxidant peptide, template for the derivative peptides (pine nut antioxidant peptide) | – | – | escape latency compared with the model group ([6]; place navigation, 5-day training, FIG. 2A): shorter escape latency; time spent in target quadrant compared with the model group ([6]; probe trial, within 90 s, FIG. 2B): significant decreases; frequency of original platform crossing compared with the model group ([6]; probe trial, within 90 s, FIG. 2C): significant decreases
